In the test the target is T1, V600E full-length B-Raf (Homo sapiens, UniProt P15056, V600E).
T1 construct: 1 μM FSBA-MEK and 20 nM V600E full-length B-Raf; made in house; host or cells: sf9 insect cells (baculovirus)
The test is described as follows: B-Raf IC50 Assay (B-RAF V600E inhibition assay, Example A). In kind it is biochemical. From the text: Determining the activity of Raf in the sample is possible by a number of direct and indirect detection methods (US 2004/0082014). Activity of human recombinant B-Raf protein may be assessed in vitro by assay of the incorporation of radio labeled phosphate to recombinant MAP kinase (MEK), a known physiologic substrate of B-Raf, according to US 2004/0127496 and WO 03/022840. The activity/inhibition of V600E full-length B-Raf was estimated by measuring the incorporation of radio labeled phosphate from [γ-33P]ATP into FSBA-modified wild-type MEK (see Example A).
Activity of human recombinant B-Raf protein may be assessed in vitro by assay of the incorporation of radio labeled phosphate to recombinant MAP kinase (MEK), a known physiologic substrate of B-Raf, according to U.S. Patent Appl. Publication No. 2004/0127496 and WO 03/022840. Catalytically active human recombinant B-Raf protein is obtained by purification from sf9 insect cells infected with a human B-Raf recombinant baculovirus expression vector.
The activity/inhibition of V600E full-length B-Raf was estimated by measuring the incorporation of radio labeled phosphate from [γ-33P]ATP into FSBA-modified wild-type MEK. The […] assay mixtures contained 25 mM Na Pipes, pH 7.2, 100 mM KCl, 10 mM MgCl2, 5 mM β-glycerophosphate, 100 μM Na Vanadate, 4 μM ATP, 500 nCi [γ-33P]ATP, 1 μM FSBA-MEK and 20 nM V600E full-length B-Raf. Incubations were carried out at 22° C. in a Costar 3365 plate (Corning). Prior to the assay, the B-Raf and FSBA-MEK were preincubated together in assay buffer at 1.5× (20 μL of 30 nM and 1.5 μM, respectively) for 15 minutes, and the assay was initiated by the addition of 10 μL of […]. Following the 60-minute incubation, the assay mixtures were quenched by the addition of 100 μL of 25% TCA, the plate was mixed on a rotary shaker for 1 minute, and the product was captured on a Perkin-Elmer GF/B filter plate using a Tomtec Mach III Harvester. After sealing the bottom of the plate, 35 μL of Bio-Safe II (Research Products International) scintillation cocktail were added to each well and the plate was top-sealed and counted in a Topcount NXT (Packard).

Setting [1] is: B-Raf V600E assay of Example A: less than 100 nM, read-out: IC50.
Setting [2] is: B-Raf V600E assay of Example A: less than about 1 μM, read-out: IC50.
[3] abbreviates: incorporation of radio labeled phosphate from [γ-33P]ATP into FSBA-modified wild-type MEK, 4 μM ATP, 20 nM V600E full-length B-Raf, 60-minute incubation, 22° C., read-out: BRAF V600E IC50.

Our source for the IC50 values is patent US20120157439A1, “RAF INHIBITOR COMPOUNDS AND METHODS OF USE THEREOF” (GENENTECH, INC., priority 2009, published 2012).

Where two headings read alike, the source gives them in different places.

T1 sequence (P15056 whole entry V600E): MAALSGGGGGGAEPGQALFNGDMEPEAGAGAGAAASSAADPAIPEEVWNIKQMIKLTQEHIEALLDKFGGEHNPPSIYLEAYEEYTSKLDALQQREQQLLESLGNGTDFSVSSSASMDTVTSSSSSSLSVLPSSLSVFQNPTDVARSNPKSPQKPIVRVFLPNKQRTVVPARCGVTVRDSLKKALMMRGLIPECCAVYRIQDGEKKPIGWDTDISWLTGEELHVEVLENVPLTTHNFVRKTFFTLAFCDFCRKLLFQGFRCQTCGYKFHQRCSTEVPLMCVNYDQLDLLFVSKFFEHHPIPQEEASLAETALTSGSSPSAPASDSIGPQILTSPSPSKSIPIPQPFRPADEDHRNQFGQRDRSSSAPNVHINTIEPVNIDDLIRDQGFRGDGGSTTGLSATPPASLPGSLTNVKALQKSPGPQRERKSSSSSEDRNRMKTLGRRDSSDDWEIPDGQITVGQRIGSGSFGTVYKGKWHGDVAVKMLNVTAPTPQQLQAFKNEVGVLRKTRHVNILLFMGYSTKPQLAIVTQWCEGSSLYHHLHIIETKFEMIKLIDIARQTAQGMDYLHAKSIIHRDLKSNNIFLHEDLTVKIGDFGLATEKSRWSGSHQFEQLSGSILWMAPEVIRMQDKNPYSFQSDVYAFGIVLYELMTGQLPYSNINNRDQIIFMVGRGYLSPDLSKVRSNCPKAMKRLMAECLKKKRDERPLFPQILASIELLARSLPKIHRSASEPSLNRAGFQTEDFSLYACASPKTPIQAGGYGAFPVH

One may read the IC50 as the concentration needed to halve the response being measured. As for `Nc1ncnc2c(C(=O)Nc3c(F)ccc(NS(=O)(=O)c4ccco4)c3F)csc12` [Example 12, 4-Amino-thieno[3,2-d]pyrimidine-7-carboxylic acid[2,6-difluoro-3-(furan-2-sulfonylamino)-phenyl]-amide], the IC50 is below 0.1 µM under setting [1], below 1 µM under setting [2] and 0.00022 µM under setting [3].
Regarding `CCCS(=O)(=O)Nc1ccc(F)c(NC(=O)c2sc(C)c3c(N)ncnc23)c1F` [Example 99, 4-Amino-5-methyl-thieno[3,4-a]pyrimidine-7-carboxylic acid [2,6-difluoro-3-(propane-1-sulfonylamino)-phenyl]-amide], the IC50 was below 0.1 µM under setting [1], below 1 µM under setting [2] and 0.003 µM under setting [3].
Take `CCCS(=O)(=O)Nc1ccc(F)c(NC(=O)c2ccc3c(N)ncnn23)c1F` [Example 101, 4-Amino-pyrrolo[2,1-f][1,2,4]triazine-7-carboxylic acid [2,6-difluoro-3-(propane-1-sulfonylamino)-phenyl]-amide]: the IC50 is below 0.1 µM under setting [1], below 1 µM under setting [2] and 0.0025 µM under setting [3].
For `CCCS(=O)(=O)Nc1cc(F)c(F)c(NC(=O)c2csc3c(N)ncnc23)c1F` [Example 23, 4-Amino-thieno[3,2-d] pyrimidine-7-carboxylic acid [2,3,6-trifluoro-5-(pro-pane-1-sulfonyl-amino)-phenyl]-amide], in that order: below 0.1 µM, below 1 µM and 0.0008 µM.
The corresponding values for `CCCNc1ncnc2c(C(=O)Nc3c(F)ccc(NS(=O)(=O)CCC)c3F)csc12` [Example 49, 4-Propylamino-thieno[3,2-d] pyrimidine-7-carboxylic acid [2,6-difluoro-3-(propane-1-sulfonylamino)-phenyl]-amide] are below 0.1 µM, below 1 µM and 0.0109 µM.
As to `Nc1ncnc2c(C(=O)Nc3c(Cl)ccc(NS(=O)(=O)CCCF)c3Cl)csc12` [Example 24, 4-Amino-thieno[3,2-d] pyrimidine-7-carboxylic acid [2,6-dichloro-3-(3-fluoro-propane-1-sulfonylamino)-phenyl]-amide], the IC50 under setting [1] was below 0.1 µM, the half-inhibitory concentration (IC50) under setting [2] was below 1 µM and the IC50 under setting [3] turned out to be 0.00011 µM.
The corresponding values for `CCCS(=O)(=O)Nc1cc(F)c(F)c(NC(=O)c2csc3c(NCCF)ncnc23)c1F` [Example 89, 4-(2-Fluoro-ethylamino)-thieno[3,2-d] pyrimidine-7-carboxylic acid [2,3,6-trifluoro-5-(propane-1-sulfonyl-amino)e-phenyl]-amid] are below 0.1 µM, below 1 µM and 0.0037 µM.
Turning to `O=C(Nc1c(Cl)ccc(NS(=O)(=O)CCCF)c1Cl)c1csc2c(NC3CC3)ncnc12` [Example 82, 4-Cyclopropyl-amino-thieno [3,2-d] pyrimidine-7-carboxylic acid [2,6-dichloro-3-(3-fluoro-propane-1-sulfonyl-amino)-phenyl]-amide], the IC50 under setting [1] is below 0.1 µM, the concentration for half-maximal inhibition (IC50) under setting [2] was below 1 µM and the IC50 under setting [3] is 0.00013 µM.
As to `CCCS(=O)(=O)Nc1cc(F)c(F)c(NC(=O)c2csc3c(NC4CCOC4)ncnc23)c1F` (centres unmarked) [Example 88, 4-(Tetrahydro-furan-3-ylamino)-thieno[3,2-d] pyrimidine-7-carboxylic acid [2,3,6-trifluoro-5-(propane-1-sulfonyl-amino)-phenyl]-amide], the IC50 was below 1 µM under setting [2] and 0.12 µM under setting [3].
In the case of `CCCNc1ncnc2c(C(=O)Nc3c(F)ccc(NS(=O)(=O)CCC)c3Cl)csc12` [Example 45, 4-Propylamino-thieno[3,2-d]pyrimidine-7-carboxylic acid [2-chloro-6-fluoro-3-(propane-1-sulfonylamino)-phenyl]-amide], the half-maximal inhibitory concentration (IC50) is below 0.1 µM under setting [1], below 1 µM under setting [2] and 0.0041 µM under setting [3].
Regarding `CCS(=O)(=O)Nc1ccc(F)c(NC(=O)c2csc3c(N)ncnc23)c1Cl` [Example 4, 4-Amino-thieno[3,2-d] pyrimidine-7-carboxylic acid (2-chloro-3-ethane-sulfonylamino-6-fluoro-phenyl)-amide], the IC50 runs as follows: under setting [1], below 0.1 µM; under setting [2], below 1 µM; under setting [3], 0.00425 µM.
Regarding `CCCS(=O)(=O)Nc1ccc(F)c(NC(=O)c2csc3c(NCC)ncnc23)c1F` [Example 48, 4-Ethylamino-thieno[3,2-d] pyrimidine-7-carboxylic acid [2,6-difluoro-3-(propane-1-sulfonylamino)-phenyl]-amide], the IC50 was below 0.1 µM under setting [1], below 1 µM under setting [2] and 0.0114 µM under setting [3].
Take `CCCS(=O)(=O)Nc1ccc(F)c(NC(=O)c2csc3c(NCCOC)ncnc23)c1F` [Example 60, 4-(2-Methoxy-ethylamino)-thieno[3,2-d] pyrimidine-7-carboxylic acid [2,6-difluoro-3-(propane-1-sulfonylamino)-phenyl]-amide]: the 50% inhibitory concentration (IC50) was below 1 µM under setting [2] and 0.177 µM under setting [3].
Take `CCCS(=O)(=O)Nc1cc(F)c(F)c(NC(=O)c2csc3c(NCC)ncnc23)c1F` [Example 85, 4-Ethylamino-thieno[3,2-d] pyrimidine-7-carboxylic acid [2,3,6-trifluoro-5-(propane-1-sulfonyl-amino)-phenyl]-amide]: the half-inhibitory concentration (IC50) reads like this: under setting [1], below 0.1 µM; under setting [2], below 1 µM; under setting [3], 0.0051 µM.
Consider `CCCS(=O)(=O)Nc1ccc(Cl)c(NC(=O)c2csc3c(NC4CN(C)C4)ncnc23)c1Cl` [Example 75, 4-(1-Methyl-azetidin-3-ylamino)-thieno[3,2-d] pyrimidine-7-carboxylic acid [2,6-dichloro-3-(propane-1-sulfonyl-amino)-phenyl]amide], for which, under setting [3], the IC50 was above 1 µM.
Consider `O=C(Nc1c(Cl)ccc(NS(=O)(=O)CCCF)c1Cl)c1csc2cncnc12` [Example 110, Thieno[3,2-d]pyrimidine-7-carboxylic acid [2,6-dichloro-3-(3-fluoro-propane-1-sulfonyl-amino)-phenyl]-amide], for which the half-maximal inhibitory concentration (IC50) reads like this: under setting [1], below 0.1 µM; under setting [2], below 1 µM; under setting [3], 0.00269 µM.
With `CCCS(=O)(=O)Nc1ccc(F)c(NC(=O)c2csc3c(Nc4cnn(C)c4)ncnc23)c1F` [Example 61, 4-(1-Methyl-1H-pyrazol-4-ylamino)-thieno[3,2-d] pyrimidine-7-carboxylic acid [2,6-difluoro-3-(propane-1-sulfonylamino)-phenyl]-amide], the IC50 by setting is: under setting [1], below 0.1 µM; under setting [2], below 1 µM; under setting [3], 0.0017 µM.
As for `CCCS(=O)(=O)Nc1ccc(F)c(NC(=O)c2csc3c(NC)ncnc23)c1F` [Example 46, 4-Methylamino-thieno[3,2-d]pyrimidine-7-carboxylic acid [2,6-difluoro-3-(propane-1-sulfonylamino)-phenyl]-amide], the half-inhibitory concentration (IC50) runs as follows: under setting [1], below 0.1 µM; under setting [2], below 1 µM; under setting [3], 0.0496 µM.
In the case of `CCCS(=O)(=O)Nc1ccc(Cl)c(NC(=O)c2csc3c(NC4CCOCC4)ncnc23)c1Cl` [Example 77, 4-(Tetrahydro-pyran-4-ylamino)-thieno[3,2-d] pyrimidine-7-carboxylic acid [2,6-dichloro-3-(propane-1-sulfonyl-amino)-phenyl]-amid], the half-inhibitory concentration (IC50) by setting is: under setting [1], below 0.1 µM; under setting [2], below 1 µM; under setting [3], 0.0775 µM.
With `O=C(Nc1c(F)ccc(NS(=O)(=O)CCCF)c1F)c1csc2c(NC3CC3)ncnc12` [Example 64, 4-Cyclopropylamino-thieno[3,2-d]pyrimidine-7-carboxylic acid [2,6-difluoro-3-(3-fluoro-propane-1-sulfonylamino)-phenyl]amide], the IC50 runs as follows: under setting [1], below 0.1 µM; under setting [2], below 1 µM; under setting [3], 0.0011 µM.
Consider `CCCS(=O)(=O)Nc1ccc(Cl)c(NC(=O)c2csc3c(NCC(F)F)ncnc23)c1Cl` [Example 69, 4-(2,2-Difluoro-ethylamino)-thieno[3,2-d] pyrimidine-7-carboxylic acid [2,6-dichloro-3-(propane-1-sulfonyl-amino)-phenyl]-amide], for which the concentration for half-maximal inhibition (IC50) by setting is: under setting [1], below 0.1 µM; under setting [2], below 1 µM; under setting [3], 0.0022 µM.
